# Columns and labels:
# demodex mites [1] = experiment: Case study, rosacea patient; type: in vivo, human; details: Case 1, person with rosacea, DHIS 0.75% cream BID for 4 weeks
# Text: Case 1 involved a person with rosacea for 11 years. They had facial erythema and papules and pustules, with mild telangiectasia. There was burning sensation. This was associated with mild rhinophyma. There was foreign body sensation in the eyes. They had received tetracycline and sulfonamide based creams with no obvious improvement. At base line, there was more than usual number of demodex mites. They received DHIS 0.75% cream treatment BID for 4 weeks. […] See photos of the rosacea patient prior to treatment (FIG. 3A) and after 4 weeks of treatment (FIG. 3B).
# D. folliculorum = experiment: In vitro miticidal assay, survival of isolated human demodex mites under microscopy; details: for Number mites dead / (%) mites dead: D. folliculorum; for Number mites dead: 30 mites per slide
# Method: (§1) DHIS has potent miticidal activities. As described herein, an in vitro miticidal assay was performed to determine the miticidal activities of DHIS by using human demodex mites prepared with pressure scraping method, following by microscopic examination of the survival time of demodex under microscopy, using the method described in Chinese Journal of Parasitology and Parasitic Diseases 2011; 29:258-263.
# (§2) In vitro miticidal assay was performed using human demodex mites prepared with pressure scraping method, following by microscopic examination of the survival time of demodex under microscopy, using the method described in Chinese Journal of Parasitology and Parasitic Diseases (Supra).
# (§3) […] The slides were incubated at room temperature (20° C.) and under 70% humidity. The slides were examined under microscopy every 60 minutes for 8 hours after treatment. At each time point, the percentage of dead mites (no movements for 1 minute) was recorded for each treatment concentration.
# D. bravis = experiment: as above; details: for Number mites dead: 30 mites per slide
# Method: as §1, §2, §3
# demodex mites [2] = experiment: Topical DHIS cream in volunteers with papulopustular acne vulgaris (FIG. 2); type: in vivo, human; details: acne patients, DHIS 0.75% cream twice daily
# Method: (§4) A total of 20 volunteers (10 with papulopustular rosacea, 10 with papulopustular acne vulgaris) were recruited for this observation.
# (§5) For each volunteer, the duration of the condition, the baseline sign and symptoms of their facial conditions and the severity of their condition were recorded. For the signs of the condition, papules and pustules were counted as total number for each individual. Erythema was rated as severe (3, deep red to purple), moderate (2, red), mild (1, pink), or none (0, normal color). For burning and pruritus, visual analogue scale (10 cm line) was used, with the score recorded from 0 (no symptoms) to 10 cm (most severe). In addition, the baseline demodex mite density of the perinasal skin was measured using the modified pressure-scraping technique. For the purpose of this study, both D. folliculorum and D. bravis were counted together. Then each volunteer used DHIS topical cream at 0.75% concentration, twice daily to the affected areas on the face. They were seen again at 4 weeks, when the clinical signs and symptoms were recorded. Further the demodex mite density was assessed again using the modified pressure/scraping technique.
# (§6) Individuals with papulopustular rosacea (FIG. 1, N=10) and acne (FIG. 2, N=10) received DHIS 0.75% cream twice daily for 4 weeks. The demodex mite density (mite/cm^2) and clinical signs/symptoms are assessed at the baseline and again at 4 weeks. Papules and pustules are counted or the entire facial area for each individual. Erythema was graded as mild (1, pink), moderate (2, red), or severe (3, purple-red), whereas itchiness and burning sensation were graded according to a 10 cm visual analogue scale. * denotes p<0.05 (t-test)
# demodex mites [3] = experiment: Case study, acne patient; type: in vivo, human; details: Case 2, person with acne, DHIS 0.75% cream BID, 4 weeks
# Text: Case 2 involved a person with more than 3 years of acnes symptoms. They had open comedons as well as closed comedons. There were papules and pustules but only mild erythema. They had received topical retinoic acid therapy with no improvement. In addition, they received benzoyl peroxide/antibiotic combination topical therapy, oral birth control pills, oral tetracycline, as well as oral Traditional Chinese Medicine concoction, all without satisfactory effects. They had increased demodex mite count at base line. […] Their facial acne papules and pustules resolved at the end of 4 weeks. See photos of the acne patient (cheeks and forehead) prior to treatment (FIGS. 4A and 5A) and after 4 weeks of treatment (FIGS. 4B and 5B).
# demodex mites [4] = experiment: Topical DHIS cream in volunteers with papulopustular rosacea (FIG. 1); type: in vivo, human; details: DHIS 0.75% cream twice daily
# Method: as §4, §5, §6
structure (smiles),measurement,setting,value
"CC(C)c1c(O)cc(/C=C/c2ccccc2)cc1O [DHIS, 3,5-Dihydroxy-4-isopropyl-trans-stilbene]",demodex mite density,demodex mites [1],markedly decreased
same,rosacea signs and symptoms,demodex mites [1],dramatically improved
same,Number mites dead,"D. folliculorum; DHIS 1 μM, 0 hr",0
same,(%) mites dead,"D. folliculorum; DHIS 1 μM, 1 hr",(10) %
same,Number mites dead,"D. folliculorum; DHIS 1 μM, 1 hr",3
same,(%) mites dead,"D. folliculorum; DHIS 1 μM, 2 hr",(17) %
same,Number mites dead,"D. folliculorum; DHIS 1 μM, 2 hr",5
same,(%) mites dead,"D. folliculorum; DHIS 1 μM, 3 hr",(28) %
same,Number mites dead,"D. folliculorum; DHIS 1 μM, 3 hr",8.6
same,(%) mites dead,"D. folliculorum; DHIS 1 μM, 4 hr",(43) %
same,Number mites dead,"D. folliculorum; DHIS 1 μM, 4 hr",13
same,Number mites dead,"D. folliculorum; DHIS 10 μM, 0 hr",0
same,(%) mites dead,"D. folliculorum; DHIS 10 μM, 1 hr",(23) %
same,Number mites dead,"D. folliculorum; DHIS 10 μM, 1 hr",7
same,(%) mites dead,"D. folliculorum; DHIS 10 μM, 2 hr",(41) %
same,Number mites dead,"D. folliculorum; DHIS 10 μM, 2 hr",12.3
same,(%) mites dead,"D. folliculorum; DHIS 10 μM, 3 hr",(47) %
same,Number mites dead,"D. folliculorum; DHIS 10 μM, 3 hr",14
same,(%) mites dead,"D. folliculorum; DHIS 10 μM, 4 hr",(73) %
same,Number mites dead,"D. folliculorum; DHIS 10 μM, 4 hr",22
same,Number mites dead,"D. folliculorum; DHIS 100 μM, 0 hr",0
same,(%) mites dead,"D. folliculorum; DHIS 100 μM, 1 hr",(33) %
same,Number mites dead,"D. folliculorum; DHIS 100 μM, 1 hr",10
same,(%) mites dead,"D. folliculorum; DHIS 100 μM, 2 hr",(72) %
same,Number mites dead,"D. folliculorum; DHIS 100 μM, 2 hr",21.7
same,(%) mites dead,"D. folliculorum; DHIS 100 μM, 3 hr",(87) %
same,Number mites dead,"D. folliculorum; DHIS 100 μM, 3 hr",26
same,(%) mites dead,"D. folliculorum; DHIS 100 μM, 4 hr",(92) %
same,Number mites dead,"D. folliculorum; DHIS 100 μM, 4 hr",27.7
same,Number mites dead,"D. folliculorum; DHIS 1.0 mM, 0 hr",0
same,(%) mites dead,"D. folliculorum; DHIS 1.0 mM, 1 hr",(43) %
same,Number mites dead,"D. folliculorum; DHIS 1.0 mM, 1 hr",13
same,(%) mites dead,"D. folliculorum; DHIS 1.0 mM, 2 hr",(80) %
same,Number mites dead,"D. folliculorum; DHIS 1.0 mM, 2 hr",24
same,(%) mites dead,"D. folliculorum; DHIS 1.0 mM, 3 hr",(93) %
same,Number mites dead,"D. folliculorum; DHIS 1.0 mM, 3 hr",28
same,(%) mites dead,"D. folliculorum; DHIS 1.0 mM, 4 hr",(97) %
same,Number mites dead,"D. folliculorum; DHIS 1.0 mM, 4 hr",29
same,miticidal activity in vitro,"D. folliculorum; human demodex mites, Example 1",dose-dependent miticidal activity
same,Number mites dead,"D. bravis; DHIS 1 μM, 0 hr",0
same,(%) mites dead,"D. bravis; DHIS 1 μM, 1 hr",(6.7) %
same,Number mites dead,"D. bravis; DHIS 1 μM, 1 hr",2
same,(%) mites dead,"D. bravis; DHIS 1 μM, 2 hr",(13) %
same,Number mites dead,"D. bravis; DHIS 1 μM, 2 hr",4
same,(%) mites dead,"D. bravis; DHIS 1 μM, 3 hr",(23) %
same,Number mites dead,"D. bravis; DHIS 1 μM, 3 hr",7
same,(%) mites dead,"D. bravis; DHIS 1 μM, 4 hr",(33) %
same,Number mites dead,"D. bravis; DHIS 1 μM, 4 hr",10
same,Number mites dead,"D. bravis; DHIS 10 μM, 0 hr",0
same,(%) mites dead,"D. bravis; DHIS 10 μM, 1 hr",(20) %
same,Number mites dead,"D. bravis; DHIS 10 μM, 1 hr",6
same,(%) mites dead,"D. bravis; DHIS 10 μM, 2 hr",(37) %
same,Number mites dead,"D. bravis; DHIS 10 μM, 2 hr",11
same,(%) mites dead,"D. bravis; DHIS 10 μM, 3 hr",(47) %
same,Number mites dead,"D. bravis; DHIS 10 μM, 3 hr",14
same,(%) mites dead,"D. bravis; DHIS 10 μM, 4 hr",(63) %
same,Number mites dead,"D. bravis; DHIS 10 μM, 4 hr",19
same,Number mites dead,"D. bravis; DHIS 100 μM, 0 hr",0
same,(%) mites dead,"D. bravis; DHIS 100 μM, 1 hr",(40) %
same,Number mites dead,"D. bravis; DHIS 100 μM, 1 hr",12
same,(%) mites dead,"D. bravis; DHIS 100 μM, 2 hr",(63) %
same,Number mites dead,"D. bravis; DHIS 100 μM, 2 hr",19
same,(%) mites dead,"D. bravis; DHIS 100 μM, 3 hr",(80) %
same,Number mites dead,"D. bravis; DHIS 100 μM, 3 hr",24
same,(%) mites dead,"D. bravis; DHIS 100 μM, 4 hr",(87) %
same,Number mites dead,"D. bravis; DHIS 100 μM, 4 hr",26
same,Number mites dead,"D. bravis; DHIS 1.0 mM, 0 hr",0
same,(%) mites dead,"D. bravis; DHIS 1.0 mM, 1 hr",(47) %
same,Number mites dead,"D. bravis; DHIS 1.0 mM, 1 hr",14
same,(%) mites dead,"D. bravis; DHIS 1.0 mM, 2 hr",(60) %
same,Number mites dead,"D. bravis; DHIS 1.0 mM, 2 hr",18
same,(%) mites dead,"D. bravis; DHIS 1.0 mM, 3 hr",(87) %
same,Number mites dead,"D. bravis; DHIS 1.0 mM, 3 hr",26
same,(%) mites dead,"D. bravis; DHIS 1.0 mM, 4 hr",(87) %
same,Number mites dead,"D. bravis; DHIS 1.0 mM, 4 hr",26
same,erythema,demodex mites [2]; 4 weeks,reduced erythema was also statistically significant
same,itchiness and burning sensation,demodex mites [2]; 4 weeks,reduced
same,lesional counts for papules and pustules,demodex mites [2]; 4 weeks,dramatic reduction
same,demodex mite density,demodex mites [2]; 4 weeks compared with baseline,significant reduction
same,facial acne papules and pustules,demodex mites [3],resolved
same,facial demodex mite density,demodex mites [3],significantly decreased
same,erythema,demodex mites [4]; 4 weeks,reduced erythema was also statistically significant
same,itchiness and burning sensation,demodex mites [4]; 4 weeks,reduced
same,lesional counts for papules and pustules,demodex mites [4]; 4 weeks,dramatic reduction
same,demodex mite density,demodex mites [4]; 4 weeks compared with baseline,significant reduction

# Reference: US20170231922A1, “3, 5-DIHYDROXY-4-ISOPROPYLSTILBENE (DHIS) AS MITICIDAL AGENT AND ITS THERAPEUTIC USES” (Horizon GenoMed Therapeutics, Inc, priority 2016, published 2017)
